Data published in patent publication US20130189366A1, “DRUG DELIVERY SYSTEMS AND METHODS OF USE” (Brown University, priority 2012, published 2013).
Structures can show the parent of a compound that is named as a salt.

Key:
[1] = tested on: tetracycline inducible gene expression system (CHO-K1 Tet-IGF1 cells); test: DOX-induced IGF-1 release from CHO-K1 Tet-IGF1 cells (ELISA); format: cell-based, Chinese hamster; details: encapsulated and unencapsulated CHO-K1 Tet-IGF1 cells, 24 hours
Procedure: Chinese hamster ovary cells (CHO-K1 Tet-On, Clontech Laboratories, Mountain View, Calif.), stably transfected to express the transactivator protein (rtTA) for a tetracycline inducible gene expression system, were cultured at 37° C. and 5% CO2 in DMEM supplemented with 10% tetracycline-free FBS (Clontech), 1% penicillin/streptomycin (Invitrogen, Carlsbad, Calif.), and 200 μg/mL G418 (Sigma-Aldrich). All cell counting was done using Trypan Blue exclusion and the COUNTESS® Automated Cell Counter (Invitrogen). […]
The quantity of human IGF-1 from each supernatant sample was determined using ELISA (R&D Systems, Minneapolis, Minn.) and SPECTRAMAX® Absorbance plate reader (Molecular Devices, Sunnydale, Calif.). All samples were run in triplicate and amount released was normalized to one million viable cells per sample as counted at the end of each study.
Modified and unmodified cells were plated in 6-well tissue culture plates at a density of 3×10^5 cells per well (n=6 per cell type). […] At the end of the study, cells were trypsinized and counted.
Modified encapsulated and unencapsulated cells were plated into 12-well tissue culture plates. […] At the end of the study, cells were trypsinized and counted.
Encapsulated modified and unmodified cells were plated in 12-well tissue culture plates at an equal density per well and cultured at 32° C. […] On day 10, capsules were solubilized and cells were counted.

CHO-K1 Tet-IGF1 cells = test: Co-culture of CHO-K1 Tet-IGF1 cells with DOX loaded PLGA microspheres or bolus DOX, IGF-1 ELISA; format: cell-based, Chinese hamster; details: total 2 μg DOX over 24 hours, unencapsulated and encapsulated cultures
Procedure: Cells were encapsulated and encapsulated cell count and viability were determined as described in Examples 1 and 2. Microencapsulated and unencapsulated CHO-K1 Tet-IGF1 cells were co-cultured with DOX loaded PLGA microspheres to assess DOX-inducible IGF-1 synthesis and delivery. Approximately 5×10^5 encapsulated or 5×10^4 unencapsulated cells were plated per well in 12-well plates. After incubating cultures for 24 hours at 37° C., medium was completely removed from each well and 2 mL fresh media containing one of the following was added to each well (n=3): 1 μg/mL DOX (Clontech), 1.6 mg of DOX loaded PLGA microspheres, 1.6 mg of unloaded PLGA control microspheres, or no DOX. The mass of spheres used in these studies was calculated to release a total of 2 μg of DOX after 24 hours of incubation as determined by the results of the cumulative in vitro release. Cultures were incubated for another 24 hours, at which time the supernatant from each culture was removed and stored at −20° C. for later measurement. For unencapsulated cultures, cells were trypsinized and counted using Trypan Blue exclusion. For encapsulated cultures, cells were collected via alginate solubilization prior to counting. IGF-1 was quantified as described in Example 2.

C[C@H]1c2cccc(O)c2C(=O)C2=C(O)[C@]3(O)C(=O)C(C(N)=O)=C(O)[C@@H](N(C)C)[C@@H]3[C@@H](O)[C@@H]21 [DOX, doxycycline hydrochloride]
DOX concentration giving detectable IGF-1 release [1]: ≥ 0.125 µg/mL | IGF-1 synthesis and delivery after 24 hours (CHO-K1 Tet-IGF1 cells): induced
